Data published in patent US20260137634A1, “USE OF STILBENE DERIVATIVE IN PREVENTION AND/OR TREATMENT OF ULCERS” (THEDERMA SHANGHAI CO., LTD., priority 2022, published 2026).

Columns and labels:
[1] = test system: SD male rat oral ulcer model; experiment: Efficacy in SD male rat oral ulcer model after 7 days of treatment; type: in vivo; conditions: SD male rats; for Ulcer healing rate / Ulcer area Day 7: 1 mg/rat; for Ulcer healing rate: 2 times daily for 7 days; for Ulcer healing rate / Ulcer area Day 7 / Ulcer area Day 0: n = 6; for Ulcer area Day 7: 50 μL applied to ulcer 2 times daily for 7 days; for Ulcer area Day 0: glacial acetic acid oral ulcer, Day 0 (baseline)
Procedure: Eighteen SD male rats were randomly divided into 3 groups, i.e., a model group (propylene glycol vehicle group), a 2% indigo group (1 mg/rat), and a 2% tapinarof group (1 mg/rat). Oral ulcer modeling: a 1 cm×0.6 cm filter paper (soaked into a 60% glacial acetic acid solution) was placed on the labial mucosa of the alveolar bone beneath the lower incisor in a rat and maintained for 1 min. Administration: after the rats were anesthetized, 50 μL of the solution in each group was pipetted by using a pipettor and evenly applied to the ulcer part 2 times daily for 7 consecutive days. After each group was treated with glacial acetic acid, symptoms such as pseudomembrane covering, central depression, red and swollen edges, significant pain response after stimulation, etc. appeared, and after the administration was completed, various symptoms were relieved.

[2] = test system: DB/DB male mouse diabetic foot ulcer model; experiment: Efficacy in DB/DB male mouse diabetic foot ulcer model after 10 days of treatment; type: in vivo; conditions: DB/DB male mice; for Ulcer healing rate / Ulcer area Day 10: 1 mg/mouse; for Ulcer healing rate: 2 times daily for 10 days, ** p<0.05 vs vehicle; for Ulcer healing rate / Ulcer area Day 10 / Ulcer area Day 0: n = 6; for Ulcer area Day 10: 50 μL applied to ulcer 2 times daily for 10 days; for Ulcer area Day 0: foot ulcer, Day 0 (baseline)
Procedure: Eighteen DB/DB male mice were randomly divided into 3 groups, i.e., a model group (propylene glycol vehicle group), a 2% indigo group (1 mg/mouse), and a 2% tapinarof group (1 mg/mouse).
Foot ulcer modeling: after the mouse was anesthetized, the foot was disinfected; a 4 mm×5 mm rectangular region was marked on the dorsum of the foot; and the skin and fascia were removed within the region.
Administration: on the dorsum of the foot of the mouse, 50 μL of the solution in each group was pipetted by using a pipettor and evenly applied to the ulcer part 2 times daily for 10 consecutive days, and the length and the width of the ulcer were recorded.
Statistical analysis was performed by using one-way ANOVA. As compared to the vehicle group, ** indicates p<0.05.

SMILES	Ulcer healing rate [1] [%]	Ulcer area Day 7 [1] [mm^2]	Ulcer area Day 0 [1] [mm^2]	Ulcer healing rate [2]	Ulcer area Day 10 [2] [mm^2]	Ulcer area Day 0 [2] [mm^2]	therapeutic effect in rat oral ulcer model (in words) ([1]; 7 days of treatment)	effect in mouse diabetic foot ulcer model (in words) ([2]; after 10 days of administration)
O=C1/C(=C2\Nc3ccccc3C2=O)Nc2ccccc21 [2% indigo, indigo, reference compound]	52	22.09	46.33	26%	13.30	17.99		
CC(C)c1c(O)cc(/C=C/c2ccccc2)cc1O [2% tapinarof, tapinarof]	58	19.70	46.90	39%**	10.93	18.19	good therapeutic effect, and its efficacy was superior to that of 2% indigo	significant inhibitory effect, which was superior to that of the 2% indigo group
